Legend:
EGFR [1] = biological target: T1, EGFR (Homo sapiens (Human), UniProt P00533); assay: HTRF KinEASE-TK kinase assay, EGFR; assay type: biochemical; conditions: 3 h preincubation; for remaining activity at 1 µM: 1 μM compound, read-out: % EGFR Remaining activity vs DMSO (1 μM, 3 h); for remaining activity at 10 µM: 10 μM compound, read-out: % EGFR Remaining activity vs DMSO (10 μM, 3 h)
Outline: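 HTRF KinEASE-TK format: EGFR pre-incubated with compound at 1 and 10 uM final (0.5% DMSO) in kinase buffer with 2 mM MnCl2, 5 mM MgCl2 and 1 mM TCEP.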

EGFR [2] = biological target: T1, EGFR; assay: A549 cell lysis and immunoassay, total EGFR degradation; assay type: cell-based; parameters: key: Y: EGFR bound in cells and EGFR degradation occurred; conditions: A549 cells
Outline: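 A549 cells starved 4 h in 1% FBS DMEM, then treated 24 h with compound at 37 °C and pulsed 10 min with 50 ng/ml hEGF before RIPA lysis. Total EGFR (0.125 μg/μl lysate, anti-EGFR EP38Y) and pEGFR Y1068 (1 μg/μl lysate) were quantified by Simple Western on Jess. Signals were normalized to total-protein loading, then to DMSO.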

BTK = BTK (Homo sapiens (Human), UniProt Q06187); assay: HTRF KinEASE-TK kinase assay, BTK; assay type: biochemical; conditions: 3 h preincubation; for remaining activity at 1 µM: 1 μM compound, read-out: % BTK Remaining activity vs DMSO (1 μM, 3 h); for remaining activity at 10 µM: 10 μM compound, read-out: % BTK Remaining activity vs DMSO (10 μM, 3 h)
Outline: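 BTK activity in HTRF KinEASE-TK format, buffer containing 10 mM MnCl2, 5 mM MgCl2, 1 uM ATPγS and 1 mM TCEP; 45 min reaction with biotinylated substrate and ATP.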

BMX = BMX (Homo sapiens (Human), UniProt P51813); assay: HTRF KinEASE-TK kinase assay, BMX; assay type: biochemical; conditions: for remaining activity at 1 µM: 1 uM compound; for remaining activity at 1 µM / remaining activity at 10 µM: 3 h preincubation; for remaining activity at 10 µM: 10 uM compound; for IC50: dose response
Outline: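 Purchased BMX (0.333 ng/ul, 3.03 nM) was preincubated with or without inhibitor for 3 h at room temperature, then biotinylated substrate and ATP were added. Reactions were stopped with EDTA-containing buffer holding 31.25 nM SA-XL665 and Eu-antibody, and after 60 min phosphorylation was read as the HTRF 665/620 nm emission ratio.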

JAK3 = JAK3 (Homo sapiens (Human), UniProt P52333); assay: HTRF KinEASE-TK kinase assay, JAK3; assay type: biochemical; conditions: for remaining activity at 1 µM: read-out: % JAK3 Remaining activity vs DMSO (1 μM, 3 h); for remaining activity at 10 µM: read-out: % JAK3 Remaining activity vs DMSO (10 μM, 3 h)
Outline: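 Promega JAK3 at 0.21 nM was preincubated with inhibitor for 3 h at room temperature before biotinylated substrate and ATP were added. The reaction was stopped with EDTA detection buffer containing 31.25 nM SA-XL665 and Eu-antibody. After 60 min, the HTRF 665/620 nm emission ratio reflected substrate phosphorylation.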

FGFR4 = FGFR4 (Homo sapiens (Human), UniProt P22455); assay: HTRF KinEASE-TK kinase assay, FGFR4; assay type: biochemical; conditions: for remaining activity at 1 µM: read-out: % FGFR4 Remaining activity vs DMSO (1 μM, 3 h); for remaining activity at 10 µM: read-out: % FGFR4 Remaining activity vs DMSO (10 μM, 3 h)
Outline: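 Promega FGFR4 at 0.333 ng/ul (5.12 nM) preincubated with or without inhibitor for 3 h at room temperature, then reaction started with biotinylated substrate and ATP. Stopped with EDTA detection buffer containing 31.25 nM SA-XL665 and Eu-antibody; after 60 min, HTRF 665/620 nm ratio read as substrate phosphorylation.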

RIPK2 = RIPK2 (Homo sapiens (Human), UniProt O43353); assay: In vitro RIPK2 inhibition; assay type: biochemical; conditions: for remaining activity at 1 µM: read-out: % RIPK2 Remaining activity vs DMSO (1 μM, 3 h); for remaining activity at 10 µM: read-out: % RIPK2 Remaining activity vs DMSO (10 μM, 3 h)
[3] = compound concentration 10, 24 h

T1 sequence (P00533 25-1210): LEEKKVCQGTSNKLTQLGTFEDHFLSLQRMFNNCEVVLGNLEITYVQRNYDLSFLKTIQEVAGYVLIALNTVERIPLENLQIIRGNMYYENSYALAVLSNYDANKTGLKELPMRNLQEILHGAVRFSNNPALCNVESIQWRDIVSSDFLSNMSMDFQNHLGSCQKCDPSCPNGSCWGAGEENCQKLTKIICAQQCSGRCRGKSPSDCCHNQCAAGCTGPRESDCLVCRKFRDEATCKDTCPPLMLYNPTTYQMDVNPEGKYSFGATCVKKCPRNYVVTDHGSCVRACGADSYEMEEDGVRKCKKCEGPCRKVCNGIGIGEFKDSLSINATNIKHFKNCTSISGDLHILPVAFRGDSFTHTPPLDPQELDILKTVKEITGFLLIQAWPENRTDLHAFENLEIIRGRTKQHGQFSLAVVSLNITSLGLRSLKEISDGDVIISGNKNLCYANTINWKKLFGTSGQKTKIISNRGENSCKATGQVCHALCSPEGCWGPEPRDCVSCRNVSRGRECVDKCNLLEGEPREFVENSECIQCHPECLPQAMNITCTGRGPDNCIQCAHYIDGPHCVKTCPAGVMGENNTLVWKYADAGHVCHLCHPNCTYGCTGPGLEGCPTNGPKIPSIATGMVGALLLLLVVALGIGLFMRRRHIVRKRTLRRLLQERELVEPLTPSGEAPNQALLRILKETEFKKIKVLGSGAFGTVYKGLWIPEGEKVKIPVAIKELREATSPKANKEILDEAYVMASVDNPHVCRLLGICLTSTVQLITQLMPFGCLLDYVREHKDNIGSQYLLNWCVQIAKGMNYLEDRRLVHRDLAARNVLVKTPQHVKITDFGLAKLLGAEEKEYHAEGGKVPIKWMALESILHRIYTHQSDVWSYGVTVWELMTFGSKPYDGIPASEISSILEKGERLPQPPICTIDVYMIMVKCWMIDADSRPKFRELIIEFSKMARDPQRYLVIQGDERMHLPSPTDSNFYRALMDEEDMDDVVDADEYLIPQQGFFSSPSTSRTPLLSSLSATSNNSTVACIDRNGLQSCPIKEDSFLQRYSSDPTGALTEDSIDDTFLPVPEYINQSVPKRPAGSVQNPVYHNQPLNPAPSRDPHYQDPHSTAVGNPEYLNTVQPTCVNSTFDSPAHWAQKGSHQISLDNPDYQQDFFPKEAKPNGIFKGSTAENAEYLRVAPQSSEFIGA
BMX, sequence (P51813 whole entry): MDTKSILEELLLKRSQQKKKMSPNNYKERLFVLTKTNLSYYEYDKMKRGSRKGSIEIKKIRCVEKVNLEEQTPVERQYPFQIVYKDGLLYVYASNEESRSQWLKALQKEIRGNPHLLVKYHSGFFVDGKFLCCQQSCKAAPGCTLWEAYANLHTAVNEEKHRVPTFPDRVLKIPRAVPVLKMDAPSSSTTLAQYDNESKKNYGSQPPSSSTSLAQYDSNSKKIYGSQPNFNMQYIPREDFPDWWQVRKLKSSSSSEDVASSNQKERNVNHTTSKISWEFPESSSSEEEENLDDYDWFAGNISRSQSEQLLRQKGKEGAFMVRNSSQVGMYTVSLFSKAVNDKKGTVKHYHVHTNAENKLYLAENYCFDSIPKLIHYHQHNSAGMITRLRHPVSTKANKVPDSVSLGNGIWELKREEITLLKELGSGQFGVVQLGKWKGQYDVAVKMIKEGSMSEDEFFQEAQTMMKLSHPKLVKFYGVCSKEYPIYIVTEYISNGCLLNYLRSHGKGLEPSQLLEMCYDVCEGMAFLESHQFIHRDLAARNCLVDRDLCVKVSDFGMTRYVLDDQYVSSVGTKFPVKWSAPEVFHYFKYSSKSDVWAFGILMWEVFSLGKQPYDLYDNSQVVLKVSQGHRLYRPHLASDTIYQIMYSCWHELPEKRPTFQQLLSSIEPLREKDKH
RIPK2, sequence (O43353 whole entry, species assumed): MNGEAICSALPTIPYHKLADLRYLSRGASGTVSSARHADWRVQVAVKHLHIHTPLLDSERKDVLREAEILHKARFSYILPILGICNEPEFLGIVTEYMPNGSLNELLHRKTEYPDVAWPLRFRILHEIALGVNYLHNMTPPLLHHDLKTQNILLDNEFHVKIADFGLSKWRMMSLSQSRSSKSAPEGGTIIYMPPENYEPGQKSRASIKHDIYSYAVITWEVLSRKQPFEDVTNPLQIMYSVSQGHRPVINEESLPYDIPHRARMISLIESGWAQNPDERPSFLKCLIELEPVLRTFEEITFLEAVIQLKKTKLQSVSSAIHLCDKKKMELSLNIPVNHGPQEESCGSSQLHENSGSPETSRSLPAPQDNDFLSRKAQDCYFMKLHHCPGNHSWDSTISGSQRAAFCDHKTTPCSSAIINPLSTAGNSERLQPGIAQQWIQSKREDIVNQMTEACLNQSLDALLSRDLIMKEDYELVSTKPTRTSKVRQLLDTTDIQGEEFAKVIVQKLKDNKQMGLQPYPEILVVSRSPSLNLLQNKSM
JAK3, sequence (P52333 781-1124): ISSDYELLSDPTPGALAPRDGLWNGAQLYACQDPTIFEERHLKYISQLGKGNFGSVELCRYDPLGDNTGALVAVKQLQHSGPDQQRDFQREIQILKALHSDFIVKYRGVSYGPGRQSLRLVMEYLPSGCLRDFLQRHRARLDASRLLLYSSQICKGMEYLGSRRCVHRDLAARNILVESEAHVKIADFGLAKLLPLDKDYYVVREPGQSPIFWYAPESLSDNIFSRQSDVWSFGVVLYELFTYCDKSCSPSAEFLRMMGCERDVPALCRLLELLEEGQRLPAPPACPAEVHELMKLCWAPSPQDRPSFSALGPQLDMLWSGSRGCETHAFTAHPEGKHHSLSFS
FGFR4, sequence (P22455 22-802): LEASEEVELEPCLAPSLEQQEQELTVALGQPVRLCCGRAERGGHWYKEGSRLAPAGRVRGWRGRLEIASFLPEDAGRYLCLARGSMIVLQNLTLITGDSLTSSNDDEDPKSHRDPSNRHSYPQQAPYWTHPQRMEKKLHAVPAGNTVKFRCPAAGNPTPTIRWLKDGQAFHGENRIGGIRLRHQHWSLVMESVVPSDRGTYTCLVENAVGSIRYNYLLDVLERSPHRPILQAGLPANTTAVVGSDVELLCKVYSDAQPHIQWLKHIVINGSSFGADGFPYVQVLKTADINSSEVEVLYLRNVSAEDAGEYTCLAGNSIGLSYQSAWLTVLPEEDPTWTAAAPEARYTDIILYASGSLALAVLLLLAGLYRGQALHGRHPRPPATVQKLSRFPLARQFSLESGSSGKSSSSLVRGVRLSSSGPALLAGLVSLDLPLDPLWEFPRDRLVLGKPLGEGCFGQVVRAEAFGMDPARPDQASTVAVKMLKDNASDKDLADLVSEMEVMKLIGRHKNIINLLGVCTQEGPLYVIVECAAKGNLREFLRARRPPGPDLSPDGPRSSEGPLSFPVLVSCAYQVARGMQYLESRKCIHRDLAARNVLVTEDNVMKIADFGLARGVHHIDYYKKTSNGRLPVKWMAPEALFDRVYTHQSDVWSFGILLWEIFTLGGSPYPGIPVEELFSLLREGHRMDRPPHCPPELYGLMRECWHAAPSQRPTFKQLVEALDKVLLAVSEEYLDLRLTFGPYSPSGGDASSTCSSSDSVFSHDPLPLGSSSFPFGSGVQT
BTK, sequence (Q06187 whole entry): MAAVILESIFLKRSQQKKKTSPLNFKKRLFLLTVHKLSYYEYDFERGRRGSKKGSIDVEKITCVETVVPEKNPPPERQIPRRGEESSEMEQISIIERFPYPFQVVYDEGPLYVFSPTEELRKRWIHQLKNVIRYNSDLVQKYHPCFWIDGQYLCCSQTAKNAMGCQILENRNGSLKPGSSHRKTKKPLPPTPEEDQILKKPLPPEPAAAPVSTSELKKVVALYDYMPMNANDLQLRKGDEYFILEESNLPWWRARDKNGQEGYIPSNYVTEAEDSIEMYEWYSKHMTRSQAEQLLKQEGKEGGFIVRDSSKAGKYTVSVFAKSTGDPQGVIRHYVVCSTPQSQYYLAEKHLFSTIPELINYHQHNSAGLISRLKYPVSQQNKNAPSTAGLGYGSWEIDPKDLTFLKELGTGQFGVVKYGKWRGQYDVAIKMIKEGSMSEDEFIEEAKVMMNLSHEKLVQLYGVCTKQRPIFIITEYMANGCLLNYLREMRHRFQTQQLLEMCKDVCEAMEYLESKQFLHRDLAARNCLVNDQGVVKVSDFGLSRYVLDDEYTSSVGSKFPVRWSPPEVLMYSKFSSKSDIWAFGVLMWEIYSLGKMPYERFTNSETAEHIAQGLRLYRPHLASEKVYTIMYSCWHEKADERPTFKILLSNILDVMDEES

remaining activity at 1 µM (EGFR [1])	remaining activity at 10 µM (EGFR [1])	IC50 (EGFR [1]; dose response, read-out: EGFR Inhibition IC50)	EGFR degradation (A549, 1 μM, 24 h) (EGFR [2])	EGFR degradation (A549, compound concentration, 24 h) (EGFR [2]; compound concentration 5, 24 h)	remaining activity at 1 µM (BTK)	remaining activity at 10 µM (BTK)	remaining activity at 1 µM (BMX)	remaining activity at 10 µM (BMX)	remaining activity at 1 µM (JAK3)	remaining activity at 10 µM (JAK3)	IC50 (FGFR4; dose response)	remaining activity at 1 µM (FGFR4)	remaining activity at 10 µM (FGFR4)	remaining activity at 1 µM (RIPK2)	remaining activity at 10 µM (RIPK2)	EGFR degradation (A549, compound concentration, 24 h) (EGFR [2]; [3])	IC50 (BMX)	IC50 (BTK; dose response, read-out: BTK Inhibition IC50)	IC50 (JAK3; dose response)	SMILES
> 90%	> 90%	–	Y	–	< 50%	< 50%	< 50%	< 50%	50 to 90%	< 50%	–	> 90%	50 to 90%	< 50%	< 50%	Y	< 1000 nM	–	–	NS(=O)(=O)c1c(F)c(F)c(F)c(F)c1C(=O)NCCNc1ncnc2[nH]ccc12 [Compound I-48]
> 90%	> 90%	–	Y	–	< 50%	< 50%	< 50%	< 50%	< 50%	< 50%	–	50 to 90%	50 to 90%	< 50%	< 50%	Y	< 1000 nM	–	< 1000 nM	CN(C)S(=O)(=O)c1c(F)c(F)c(F)c(F)c1C(=O)NCCNc1ncnc2[nH]ccc12 [Compound I-47, N-(2-((7H-pyrrolo[2,3-d]pyrimidin-4-yl)amino)ethyl)-2-(N,N-dimethylsulfamoyl)-3,4,5,6-tetrafluorobenzamide]

The next lines start with the molecule.

SMILES	remaining activity at 1 µM (EGFR [1])	remaining activity at 10 µM (EGFR [1])	IC50 (EGFR [1]; dose response, read-out: EGFR Inhibition IC50)	EGFR degradation (A549, 1 μM, 24 h) (EGFR [2])	EGFR degradation (A549, compound concentration, 24 h) (EGFR [2]; compound concentration 5, 24 h)	remaining activity at 1 µM (BTK)	remaining activity at 10 µM (BTK)	remaining activity at 1 µM (BMX)	remaining activity at 10 µM (BMX)	remaining activity at 1 µM (JAK3)	remaining activity at 10 µM (JAK3)	IC50 (FGFR4; dose response)	remaining activity at 1 µM (FGFR4)	remaining activity at 10 µM (FGFR4)	remaining activity at 1 µM (RIPK2)	remaining activity at 10 µM (RIPK2)	EGFR degradation (A549, compound concentration, 24 h) (EGFR [2]; [3])	IC50 (BMX)	IC50 (BTK; dose response, read-out: BTK Inhibition IC50)	IC50 (JAK3; dose response)
CS(=O)(=O)c1c(F)c(F)c(F)c(F)c1C(=O)NCCCn1nc(-c2ccc(Oc3ccccc3)cc2)c2c(N)ncnc21 [Compound I-39, N-(3-(4-amino-3-(4-phenoxyphenyl)-1H-pyrazolo[3,4-d]pyrimidin-1-yl)propyl)-2,3,4,5-tetrafluoro-6-(methylsulfonyl)benzamide]	< 50%	< 50%	< 1000 nM	Y	Y	< 50%	< 50%	< 50%	< 50%	50 to 90%	< 50%	< 1000 nM	< 50%	< 50%	> 90%	> 90%	–	–	–	–
CN(C)S(=O)(=O)c1c(F)c(F)c(F)c(F)c1C(=O)NCCn1nc(-c2ccc(Oc3ccccc3)cc2)c2c(N)ncnc21 [Compound I-40, N-(2-(4-amino-3-(4-phenoxyphenyl)-1H-pyrazolo[3,4-d]pyrimidin-1-yl)ethyl)-2-(N,N-dimethylsulfamoyl)-3,4,5,6-tetrafluorobenzamide]	< 50%	< 50%	–	–	Y	< 50%	< 50%	< 50%	< 50%	> 90%	50 to 90%	–	50 to 90%	< 50%	> 90%	> 90%	–	–	< 1000 nM	–
C[S@+]([O-])c1c(F)c(F)c(F)c(F)c1C(=O)Nc1ncnc2[nH]ccc12 (racemic) [Compound I-46, 2,3,4,5-tetrafluoro-6-(methylsulfinyl)-N-(7H-pyrrolo[2,3-d]pyrimidin-4-yl)benzamide]	> 90%	> 90%	–	Y	–	50 to 90%	< 50%	50 to 90%	50 to 90%	> 90%	> 90%	–	50 to 90%	> 90%	< 50%	50 to 90%	Y	–	–	–
CN(C)S(=O)(=O)c1c(F)c(F)c(F)c(F)c1C(=O)NCCCn1nc(-c2ccc(Oc3ccccc3)cc2)c2c(N)ncnc21 [Compound I-41, N-(3-(4-amino-3-(4-phenoxyphenyl)-1H-pyrazolo[3,4-d]pyrimidin-1-yl)propyl)-2-(N,N-dimethylsulfamoyl)-3,4,5,6-tetrafluorobenzamide]	< 50%	< 50%	–	Y	Y	< 50%	< 50%	< 50%	< 50%	> 90%	> 90%	–	50 to 90%	< 50%	> 90%	> 90%	–	< 1000 nM	–	–

Source: US20240018153A1, “BENZENESULFONAMIDE DERIVATIVES AND USES THEREOF” (2692372 ONTARIO, INC., priority 2020, published 2024)
